Assay [1] concerns Pythium ultimum. As to the kind of experiment: Limit concentration of soil-fungicidal effectiveness, Pythium ultimum infested soil, peas (Example 1). Conditions: 20 to 23 days, 22°-25° C., germination at least 90% vs steamed soil; for minimal effective concentration: Globisporangium ultimum. The assay is classed as in vivo. As for the experimental part:
Limit concentrations of the soil-fungicidal effectiveness at homogeneous mixture of the products with the infested soil. Basic condition in the evaluation are a sound root formation without fungus necroses and germination of the seed of at least 90% compared with the result obtained in steamed soil. Per concentration there were seeded 25 grains of peas of the variety "Miracle of Kelvedon" (marrow pea) without a waiting period. the cultivation time in the tests was 20 to 23 days at a temperature of 22°-25° C. Four commercial products were included in the test series.
Pythium ultimum: Steamed compost soil was inoculated with mycelium of Pythium ultimum

For the next assay, the system named is Aspergillus niger. The experiment in a line: Agar test, Aspergillus niger (Example 7). The assay is classed as cell-based. Conditions: 10 ppm in malt extract agar, 5 days at 22° C.; control 100. As for the experimental part:
(§1) The fungicidal action of the agents according to the invention was tested in artificial nutrient media against plant-pathogenic fungi in Petri dishes (agar test). The procedure was to sterilize the medium consisting of 2% malt extract and 1.5% agar-agar powder. Before the solidification of the medium, the active substances were added to it, mixing thoroughly, so that the medium received 10 parts of active substance per million (ppm). After the solidification of the medium, the latter was inoculated with a platinum dropper which contained 100 spores each of the fungi to be tested, and after 5 days at 22° C., an evaluation was made by measuring the diameter of the colonies in mm.

Another assay deals with Stemphylium ilicis. The experiment in a line: Agar test, Stemphylium ilicis (Example 7). The format is cell-based. Particulars: 10 ppm in malt extract agar, 5 days at 22° C.; control 100. As for the experimental part:
as §1

In assay [2] the test system is Pythium ultimum. As to the kind of experiment: Pea test in soil inoculated with Pythium ultimum (Example 2). The format is in vivo. Also noted: key to Root evaluation (1-4): 4 = white roots, no necroses … 1 = severe necroses, roots rotted. Particulars: for Root evaluation (1-4): 3 weeks. Here is the method:
Steamed compost soil was inoculated with mycelium of Pythium ultimum. […] The following table lists the number of germinated sound peas, the weight of the fresh plant, and a root evaluation after a cultivation period of 3 weeks at 22°-25° C.
4 = white roots, without fungus necroses
3 = white roots, slight fungus necroses
2 = brown roots, more intense fungus necroses
1 = severe fungus necroses, roots rotted

In another assay the test system is Rhizoctonia solani. As to the kind of experiment: Pea test in soil inoculated with Rhizoctonia solani (Example 3). The assay is classed as in vivo. Particulars: for Root evaluation (1-4): 3 weeks; for Number of sound peas after 3 wks.: 25 grains seeded. The text has this: Steamed compost soil was inoculated with mycelium of Rhizoctonia solani. After homogeneous mixture of the products with the infested soil, the products were present in the form of 20% powder preparations, the seeding of 25 grains of marrow peas of the variety Miracle of Kelvedon per concentration was effected without waiting period in clay dishes holding 1 liter of soil. The table lists the number of germinated sound peas, the weight of the fresh plant, and a root evaluation after a cultivation period of 3 weeks at 22°-25° C.

The mark [3] stands for this setting: 10 mg active ingr. per liter of soil.
The mark [4] stands for this setting: 20 mg active ingr. per liter of soil.
[5] abbreviates: 30 mg active ingr. per liter of soil.
The mark [6] stands for this setting: 50 mg active ingr. per liter of soil.
[7] abbreviates: 100 mg active ingr. per liter of soil.

A value given as a limit tells only on which side of the number the result lay.

Turning to `C[S+]([O-])c1nnc(CCl)s1` (stereo not shown) [Compound 2, 2-chloromethyl-5-methylsulfinyl-1,3,4-thiadiazole], the minimal effective concentration – broadly, the lowest level tested that produced the effect sought – in the assay on Pythium ultimum [1] came to 30 µg/mL.
Same read-out and setting: then `CC(C)[S+]([O-])c1nnc(C(Cl)Cl)s1` (stereo not shown) [Compound 6, 2-dichloromethyl-5-isopropylsulfinyl-1,3,4-thiadiazole], with greater than 200 µg/mL.
For the compound `CCCCC[S+]([O-])c1nnc(C(Cl)Cl)s1` (stereo not shown) [Compound 7, 2-dichloromethyl-5-amylsulfinyl 1,3,4-thiadiazole], the “diameter of the colonies, Aspergillus niger” value (shortened to “diameter … Aspergillus niger”) in the assay with Aspergillus niger stood at 0 mm. The minimal effective concentration with Pythium ultimum [1] was greater than 200 µg/mL. Moreover, the “diameter of the colonies, Stemphylium ilicis” value (“diameter … Stemphylium ilicis” below) in the assay on Stemphylium ilicis is given as 0 mm.
As to `CCC[S+]([O-])c1nnc(C(Cl)(Cl)Cl)s1` (stereo not shown) [Compound 10, 2-trichloromethyl-5-propylsulfinyl-1,3,4-thiadiazole], the “diameter … Aspergillus niger” value in the assay with Aspergillus niger is 0 mm. Moreover, the minimal effective concentration in the assay on Pythium ultimum [1] is 100 µg/mL. Moreover, the “diameter … Stemphylium ilicis” value in the assay on Stemphylium ilicis is 0 mm.
With `CC(C)[S+]([O-])c1nnc(C(Cl)(Cl)Cl)s1` (stereo not shown) [Compound 11, 2-trichloromethyl-5-isopropylsulfinyl-1,3,4-thiadiazole], the minimal effective concentration with Pythium ultimum [1] is greater than 200 µg/mL.
Consider `CCCC[S+]([O-])c1nnc(C(Cl)(Cl)Cl)s1` (stereo not shown) [Compound 12, 2-trichloromethyl-5-butylsulfinyl-1,3,4-thiadiazole], for which the “diameter … Aspergillus niger” value with Aspergillus niger was determined as 0 mm. In the assay on Pythium ultimum [1], this compound registered a minimal effective concentration of 200 µg/mL. Further, in the assay with Stemphylium ilicis, the “diameter … Stemphylium ilicis” value was 0 mm.
Turning to `CCCCCCC[S+]([O-])c1nnc(C(Cl)(Cl)Cl)s1` (stereo not shown) [Compound 13, 2-trichloromethyl-5-heptylsulfinyl-1,3,4-thiadiazole], the “diameter … Aspergillus niger” value in the assay on Aspergillus niger was 0 mm. In addition, the minimal effective concentration with Pythium ultimum [1] was greater than 200 µg/mL. The “diameter … Stemphylium ilicis” value with Stemphylium ilicis turned out to be 0 mm.
In the case of `CCCCCCCC[S+]([O-])c1nnc(C(Cl)(Cl)Cl)s1` (stereo not shown) [Compound 14, 2-trichloromethyl-5-octylsulfinyl-1,3,4-thiadiazole], the minimal effective concentration in the assay with Pythium ultimum [1] is greater than 200 µg/mL.
In the case of `CS(=O)(=O)c1nnc(CCl)s1` [Compound 15, 2-chloromethyl-5-methylsulfonyl-1,3,4-thiadiazole], the minimal effective concentration in the assay with Pythium ultimum [1] is 10 µg/mL. Moreover, the “Root evaluation (1-4)” value with Pythium ultimum [2] (setting [3]), in the assay on Pythium ultimum [2] (setting [4]) and with Pythium ultimum [2] (setting [5]) was 4 throughout.
`CC(C)S(=O)(=O)c1nnc(CCl)s1` [Compound 16, 2-chloromethyl-5-isopropylsulfonyl-1,3,4-thiadiazole]: the minimal effective concentration in the assay on Pythium ultimum [1] was determined as 150 µg/mL.
`CC(C)S(=O)(=O)c1nnc(C(Cl)Cl)s1` [Compound 20, 2-dochloromethyl-5-isopropylsulfonyl-1,3,4-thiadiazole]: the minimal effective concentration in the assay on Pythium ultimum [1] worked out at 200 µg/mL.
Regarding `CCS(=O)(=O)c1nnc(C(Cl)(Cl)Cl)s1` [Compound 22, 2-trichloromethyl-5-ethylsulfonyl-1,3,4-thiadiazole], the “diameter … Aspergillus niger” value in the assay with Aspergillus niger is 0 mm. The minimal effective concentration with Pythium ultimum [1] turned out to be 50 µg/mL. Further, the “diameter … Stemphylium ilicis” value in the assay on Stemphylium ilicis amounted to 0 mm.
As to `CC(C)S(=O)(=O)c1nnc(C(Cl)(Cl)Cl)s1` [Compound 24, 2-trichloromethyl-5-isopropylsulfonyl-1,3,4-thiadiazole], in the assay with Aspergillus niger, the “diameter … Aspergillus niger” value is reported as 0 mm. The compound further had a minimal effective concentration in the assay with Pythium ultimum [1] of 150 µg/mL. Besides, the “diameter … Stemphylium ilicis” value in the assay on Stemphylium ilicis was 0 mm.
For `CCCCS(=O)(=O)c1nnc(C(Cl)(Cl)Cl)s1` [Compound 25, 2-trichloromethyl-5-butylsulfonyl-1,3,4-thiadiazole], the “diameter … Aspergillus niger” value in the assay on Aspergillus niger is 0 mm. In addition, in the assay on Pythium ultimum [1], the minimal effective concentration is greater than 200 µg/mL. Further, the “diameter … Stemphylium ilicis” value with Stemphylium ilicis is recorded as 0 mm.
For `CCCCCS(=O)(=O)c1nnc(C(Cl)(Cl)Cl)s1` [Compound 26, 2-trichloromethyl-5-amylsulfonyl-1,3,4-thiadiazole], the “diameter … Aspergillus niger” value in the assay on Aspergillus niger is 0 mm. In addition, the minimal effective concentration in the assay on Pythium ultimum [1] was greater than 200 µg/mL. Besides, in the assay on Stemphylium ilicis, the “diameter … Stemphylium ilicis” value was found to be 0 mm.
In the assay with Pythium ultimum [1], `CS(=O)(=O)c1nnc(CBr)s1` [Compound 30, 2-bromomethyl-5-methylsulfonyl-1,3,4-thiadiazole] displayed a minimal effective concentration of 20 µg/mL. Further, the “Root evaluation (1-4)” value in the assay on Pythium ultimum [2] (setting [3]) is 1; in the assay with Pythium ultimum [2] (setting [4]), 4; in the assay on Pythium ultimum [2] (setting [5]) it was 4. Besides, the “Number of sound peas after 3 wks.” value with Pythium ultimum [2] (10 mg active ingr. per liter of soil, 25 grains seeded) amounted to 21.
Consider `CCS(=O)(=O)c1nnc(CBr)s1` [Compound 31, 2-bromomethyl-5-ethylsulfonyl-1,3,4-thiadiazole], for which, in the assay with Pythium ultimum [1], the minimal effective concentration was determined as 50 µg/mL.
Still for that read-out and setting: in the case of `C[S+]([O-])c1nnc(CF)s1` (stereo not shown) [Compound 33, 2-fluoromethyl-5-methylsulfinyl-1,3,4-thiadiazole] it was 50 µg/mL.
Compound `CS(=O)(=O)c1nnc(CF)s1` [Compound 34, 2-fluoromethyl-5-methylsulfonyl-1,3,4-thiadiazole] came in with a minimal effective concentration in the assay on Pythium ultimum [1] of 50 µg/mL.
The same measure, in the same setting: then `CC(C)C[S+]([O-])c1nnc(C(F)(F)F)s1` (stereo not shown) [Compound 37, 2-trifluoromethyl-5-isobutylsulfinyl-1,3,4-thiadiazole], with 30 µg/mL; and `CCCCC[S+]([O-])c1nnc(C(F)(F)F)s1` (stereo not shown) [Compound 38, 2-trifluoromethyl-5-pentylsulfinyl-1,3,4-thiadiazole], with 100 µg/mL.
On the same count and under the same terms, in the case of `CCCCCC[S+]([O-])c1nnc(C(F)(F)F)s1` (stereo not shown) [Compound 39, 2-trifluoromethyl-5-hexylsulfinyl-1,3,4-thiadiazole] it was 100 µg/mL; in that of `CC(C)S(=O)(=O)c1nnc(C(F)(F)F)s1` [Compound 41, 2-trifluoromethyl-5-isopropylsulfonyl-1,3,4-thiadiazole], 10 µg/mL.
Same read-out and setting: then `CC(C)CS(=O)(=O)c1nnc(C(F)(F)F)s1` [Compound 42, 2-trifluoromethyl-5-isobutylsulfonyl-1,3,4-thiadiazole], with 20 µg/mL.
As for `CCCCCCS(=O)(=O)c1nnc(C(F)(F)F)s1` [Compound 43, 2-trifluoromethyl-5-hexylsulfonyl-1,3,4-thiadiazole], the minimal effective concentration with Pythium ultimum [1] is greater than 100 µg/mL.
`CCCCCCCS(=O)(=O)c1nnc(C(F)(F)F)s1` [Compound 44, 2-trifluoromethyl-5-heptylsulfonyl-1,3,4-thiadiazole] showed a minimal effective concentration in the assay on Pythium ultimum [1] greater than 100 µg/mL.
Turning to `CS(=O)(=O)c1nnc(C(F)(F)C(F)(F)F)s1` [Compound 45, 2-pentafluoroethyl-5-methylsulfonyl-1,3,4-thiadiazole], the minimal effective concentration in the assay with Pythium ultimum [1] was determined as 100 µg/mL.
The same measure, in the same setting: then `CC(Cl)(Cl)c1nnc(S(C)(=O)=O)s1` [Compound 47, 2-(1,1-dichloroethyl)-5-methylsulfonyl-1,3,4-thiadiazole], with 80 µg/mL; and `CCC(Cl)c1nnc([S+](C)[O-])s1` (stereo not shown) [Compound 48, 2-(1-chloropropyl)-5-methylsulfinyl-1,3,4-thiadiazole], with greater than 100 µg/mL.
For the compound `CCC(Cl)c1nnc(S(C)(=O)=O)s1` (stereo not shown) [Compound 49, 2-(1-chloropropyl)-5-methylsulfonyl-1,3,4-thiadiazole], the minimal effective concentration with Pythium ultimum [1] was found to be 100 µg/mL.
With `CC(Br)c1nnc(S(C)(=O)=O)s1` (stereo not shown) [Compound 50, 2-(1-bromethyl)-5-methylsulfonyl-1,3,4-thiadiazole], the minimal effective concentration in the assay on Pythium ultimum [1] amounted to 40 µg/mL.
The same measure, in the same setting: in the case of `CC(C)C(Br)c1nnc(S(C)(=O)=O)s1` (stereo not shown) [Compound 51, 2-(1-bromisobutyl)-5-methylsulfonyl-1,3,4-thiadiazole] it was greater than 100 µg/mL.
For `CCCCC(Br)c1nnc(S(C)(=O)=O)s1` (stereo not shown) [Compound 52, 2-(1-bromopentyl)-5-methylsulfonyl-1,3,4-thiadiazole], the “Limit concentration of fungicidal effectiveness, Pythium ultimum” value with Pythium ultimum [1] was “no effect”.
In the case of `CC(C)CC(Br)c1nnc(S(C)(=O)=O)s1` (stereo not shown) [Compound 53, 2-(1-bromisopentyl)-5-methylsulfonyl-1,3,4-thiadiazole], the “Limit concentration of fungicidal effectiveness, Pythium ultimum” value in the assay with Pythium ultimum [1] is reported as “no effect”.
`O=[N+]([O-])c1c(Cl)c(Cl)c(Cl)c(Cl)c1Cl` [Pentachloronitrobenzene, reference compound]: the results for the “Root evaluation (1-4)” value with Rhizoctonia solani (setting [6]) and with Rhizoctonia solani (setting [7]) were 1 and 4, respectively. Besides, the “Number of sound peas after 3 wks.” value with Rhizoctonia solani (setting [6]) turned out to be 4; in the assay with Rhizoctonia solani (setting [7]), 25.

(Values after patent publication US4005213A, “2,5-Substituted-1,3,4-thiadiazoles as fungicides” (Schering Aktiengesellschaft, priority 1968, dated 1977).)
